Measured values: ChEMBL document CHEMBL3885881, “DrugMatrix”

Species: Rattus norvegicus
Test: DrugMatrix - Regimen: Daily Repeat
Assay type: toxicity, organism-based, Sprague-Dawley
Set-up: regimen Daily Repeat, gender Male, age 6-8 weeks
Settings: in vivo, po, route oral GAVAGE, vehicle .5 % CMC; for ABSOLUTE BASOPHIL / ABSOLUTE EOSINOPHIL / ABSOLUTE LYMPHOCYTE / ABSOLUTE MONOCYTE / ABSOLUTE SEGMENTED NEUTROPHIL / BASOPHIL / EOSINOPHIL / ERYTHROCYTE COUNT / HEMATOCRIT / HEMOGLOBIN / LEUKOCYTE COUNT / LYMPHOCYTE / MEAN CORPUSCULAR HEMOGLOBIN / MEAN CORPUSCULAR HEMOGLOBIN CONCENTRATION / MEAN CORPUSCULAR VOLUME / MONOCYTE / NEUTROPHIL / NUCLEATED RED BLOOD CELLS / PLATELET COUNT: tissue Blood; for ALANINE AMINOTRANSFERASE / ALBUMIN / ALKALINE PHOSPHATASE / ASPARTATE AMINOTRANSFERASE / BLOOD UREA NITROGEN / CARBON DIOXIDE / CHLORIDE / CHOLESTEROL / CREATINE PHOSPHOKINASE / CREATININE / GLUCOSE / LACTATE DEHYDROGENASE / LIPASE / PHOSPHORUS / POTASSIUM / SODIUM / TOTAL BILIRUBIN / TOTAL PROTEIN / URIC ACID: tissue Plasma
[1] = 30 mg/kg, 72 h, dose level Low, time 3 day
[2] = 30 mg/kg, 120 h, dose level Low, time 5 day
[3] = 600 mg/kg, 72 h, dose level High, time 3 day
[4] = 600 mg/kg, 120 h, dose level High, time 5 day

`Cc1c(OCC(F)(F)F)ccnc1C[S+]([O-])c1nc2ccccc2[nH]1` (configuration not stated) [LANSOPRAZOLE] was tested, and the “ABSOLUTE BASOPHIL” value [1] was 0 CELLS/uL, the “ABSOLUTE EOSINOPHIL” value [1] was 38 CELLS/uL and the “ABSOLUTE LYMPHOCYTE” value [1] was 11302.33 CELLS/uL. For the same molecule, the “ABSOLUTE MONOCYTE” value [1] was 38 CELLS/uL, the “ABSOLUTE SEGMENTED NEUTROPHIL” value [1] was 588.33 CELLS/uL and the BASOPHIL [1] was 0%. For the same molecule, the EOSINOPHIL [1] was 0.33%, the “ERYTHROCYTE COUNT” value [1] was 5.49 x10E6/uL and the HEMATOCRIT [1] was 34.33%. For the same molecule, the HEMOGLOBIN [1] was 12.9 G/DL, the “LEUKOCYTE COUNT” value [1] was 11.97 x10E3/uL and the LYMPHOCYTE [1] was 94.33%. For the same molecule, the “MEAN CORPUSCULAR HEMOGLOBIN” value [1] was 23.47 pg, the “MEAN CORPUSCULAR HEMOGLOBIN CONCENTRATION” value [1] was 37.53 G/DL and the “MEAN CORPUSCULAR VOLUME” value [1] was 62.53 fL. For the same molecule, the MONOCYTE [1] was 0.33%, the NEUTROPHIL [1] was 5% and the “NUCLEATED RED BLOOD CELLS” value [1] was 0 /100WBC. For the same molecule, the “PLATELET COUNT” value [1] was 1374 x10E3/uL, the “ALANINE AMINOTRANSFERASE” value [1] was 48.67 u/L and the ALBUMIN [1] was 4.03 G/DL. For the same molecule, the “ALKALINE PHOSPHATASE” value [1] was 333 u/L, the “ASPARTATE AMINOTRANSFERASE” value [1] was 84.33 u/L and the “BLOOD UREA NITROGEN” value [1] was 13.67 mg/dL. The “CARBON DIOXIDE” value [1] was 25.33 mmol/L, the CHLORIDE [1] was 103 MEQ/L and the CHOLESTEROL [1] was 81.33 mg/dL. The “CREATINE PHOSPHOKINASE” value [1] was 302.33 u/L, the CREATININE [1] was 0.28 mg/dL and the GLUCOSE [1] was 162 mg/dL. For the same molecule, the “LACTATE DEHYDROGENASE” value [1] was 455.33 u/L, the LIPASE [1] was 12 u/L and the PHOSPHORUS [1] was 14.17 mg/dL. For the same molecule, the POTASSIUM [1] was 6.71 MEQ/L, the SODIUM [1] was 146.4 MEQ/L and the “TOTAL BILIRUBIN” value [1] was 0.17 mg/dL. For the same molecule, the “TOTAL PROTEIN” value [1] was 5.57 G/DL, the “URIC ACID” value [1] was 1.93 mg/dL and the “ABSOLUTE BASOPHIL” value [2] was 0 CELLS/uL. For the same molecule, the “ABSOLUTE EOSINOPHIL” value [2] was 0 CELLS/uL, the “ABSOLUTE LYMPHOCYTE” value [2] was 12566 CELLS/uL and the “ABSOLUTE MONOCYTE” value [2] was 465.33 CELLS/uL. For the same molecule, the “ABSOLUTE SEGMENTED NEUTROPHIL” value [2] was 1302 CELLS/uL, the BASOPHIL [2] was 0% and the EOSINOPHIL [2] was 0%. The “ERYTHROCYTE COUNT” value [2] was 5.54 x10E6/uL, the HEMATOCRIT [2] was 36.83% and the HEMOGLOBIN [2] was 13.67 G/DL. The “LEUKOCYTE COUNT” value [2] was 14.33 x10E3/uL, the LYMPHOCYTE [2] was 87.67% and the “MEAN CORPUSCULAR HEMOGLOBIN” value [2] was 24.73 pg. For the same molecule, the “MEAN CORPUSCULAR HEMOGLOBIN CONCENTRATION” value [2] was 37.17 G/DL, the “MEAN CORPUSCULAR VOLUME” value [2] was 66.5 fL and the MONOCYTE [2] was 3.33%. For the same molecule, the NEUTROPHIL [2] was 9%, the “NUCLEATED RED BLOOD CELLS” value [2] was 0 /100WBC and the “PLATELET COUNT” value [2] was 1375.67 x10E3/uL. For the same molecule, the “ALANINE AMINOTRANSFERASE” value [2] was 52.33 u/L, the ALBUMIN [2] was 4.3 G/DL and the “ALKALINE PHOSPHATASE” value [2] was 288.67 u/L. The “ASPARTATE AMINOTRANSFERASE” value [2] was 81 u/L, the “BLOOD UREA NITROGEN” value [2] was 16.33 mg/dL and the “CARBON DIOXIDE” value [2] was 22.33 mmol/L. The CHLORIDE [2] was 103.67 MEQ/L, the CHOLESTEROL [2] was 82 mg/dL and the “CREATINE PHOSPHOKINASE” value [2] was 222.67 u/L. For the same molecule, the CREATININE [2] was 0.33 mg/dL, the GLUCOSE [2] was 147 mg/dL and the “LACTATE DEHYDROGENASE” value [2] was 157.67 u/L. For the same molecule, the LIPASE [2] was 13 u/L, the PHOSPHORUS [2] was 12.33 mg/dL and the POTASSIUM [2] was 7.1 MEQ/L. For the same molecule, the SODIUM [2] was 147.6 MEQ/L, the “TOTAL BILIRUBIN” value [2] was 0.2 mg/dL and the “TOTAL PROTEIN” value [2] was 6.07 G/DL. For the same molecule, the “URIC ACID” value [2] was 1.6 mg/dL, the “ABSOLUTE BASOPHIL” value [3] was 0 CELLS/uL and the “ABSOLUTE EOSINOPHIL” value [3] was 0 CELLS/uL. The “ABSOLUTE LYMPHOCYTE” value [3] was 13053.67 CELLS/uL, the “ABSOLUTE MONOCYTE” value [3] was 222.67 CELLS/uL and the “ABSOLUTE SEGMENTED NEUTROPHIL” value [3] was 690.33 CELLS/uL. For the same molecule, the BASOPHIL [3] was 0%, the EOSINOPHIL [3] was 0% and the “ERYTHROCYTE COUNT” value [3] was 5.81 x10E6/uL. For the same molecule, the HEMATOCRIT [3] was 37.37%, the HEMOGLOBIN [3] was 13.57 G/DL and the “LEUKOCYTE COUNT” value [3] was 13.97 x10E3/uL. For the same molecule, the LYMPHOCYTE [3] was 93.67%, the “MEAN CORPUSCULAR HEMOGLOBIN” value [3] was 23.33 pg and the “MEAN CORPUSCULAR HEMOGLOBIN CONCENTRATION” value [3] was 36.3 G/DL. For the same molecule, the “MEAN CORPUSCULAR VOLUME” value [3] was 64.3 fL, the MONOCYTE [3] was 1.33% and the NEUTROPHIL [3] was 5%. The “NUCLEATED RED BLOOD CELLS” value [3] was 0.33 /100WBC, the “PLATELET COUNT” value [3] was 1408 x10E3/uL and the “ALANINE AMINOTRANSFERASE” value [3] was 39 u/L. For the same molecule, the ALBUMIN [3] was 4.1 G/DL, the “ALKALINE PHOSPHATASE” value [3] was 387.33 u/L and the “ASPARTATE AMINOTRANSFERASE” value [3] was 76.67 u/L. The “BLOOD UREA NITROGEN” value [3] was 16.33 mg/dL, the “CARBON DIOXIDE” value [3] was 28 mmol/L and the CHLORIDE [3] was 104.67 MEQ/L. The CHOLESTEROL [3] was 55.33 mg/dL, the “CREATINE PHOSPHOKINASE” value [3] was 222 u/L and the CREATININE [3] was 0.18 mg/dL. The GLUCOSE [3] was 159 mg/dL, the “LACTATE DEHYDROGENASE” value [3] was 91.33 u/L and the LIPASE [3] was 9.67 u/L. For the same molecule, the PHOSPHORUS [3] was 12.23 mg/dL, the POTASSIUM [3] was 6.7 MEQ/L and the SODIUM [3] was 147.6 MEQ/L. The “TOTAL BILIRUBIN” value [3] was 0.13 mg/dL, the “TOTAL PROTEIN” value [3] was 5.53 G/DL and the “URIC ACID” value [3] was 1.8 mg/dL. The “ABSOLUTE BASOPHIL” value [4] was 0 CELLS/uL, the “ABSOLUTE EOSINOPHIL” value [4] was 0 CELLS/uL and the “ABSOLUTE LYMPHOCYTE” value [4] was 15467 CELLS/uL. The “ABSOLUTE MONOCYTE” value [4] was 599 CELLS/uL, the “ABSOLUTE SEGMENTED NEUTROPHIL” value [4] was 1467.33 CELLS/uL and the BASOPHIL [4] was 0%. The EOSINOPHIL [4] was 0%, the “ERYTHROCYTE COUNT” value [4] was 5.82 x10E6/uL and the HEMATOCRIT [4] was 35.9%. For the same molecule, the HEMOGLOBIN [4] was 13.57 G/DL, the “LEUKOCYTE COUNT” value [4] was 17.53 x10E3/uL and the LYMPHOCYTE [4] was 87.67%. For the same molecule, the “MEAN CORPUSCULAR HEMOGLOBIN” value [4] was 23.33 pg, the “MEAN CORPUSCULAR HEMOGLOBIN CONCENTRATION” value [4] was 37.8 G/DL and the “MEAN CORPUSCULAR VOLUME” value [4] was 61.7 fL. For the same molecule, the MONOCYTE [4] was 3.33%, the NEUTROPHIL [4] was 9% and the “NUCLEATED RED BLOOD CELLS” value [4] was 0.33 /100WBC. For the same molecule, the “PLATELET COUNT” value [4] was 1179.67 x10E3/uL, the “ALANINE AMINOTRANSFERASE” value [4] was 36 u/L and the ALBUMIN [4] was 3.93 G/DL. The “ALKALINE PHOSPHATASE” value [4] was 272.33 u/L, the “ASPARTATE AMINOTRANSFERASE” value [4] was 83.33 u/L and the “BLOOD UREA NITROGEN” value [4] was 16.67 mg/dL. The “CARBON DIOXIDE” value [4] was 28.33 mmol/L, the CHLORIDE [4] was 106 MEQ/L and the CHOLESTEROL [4] was 51.33 mg/dL. For the same molecule, the “CREATINE PHOSPHOKINASE” value [4] was 144.33 u/L, the CREATININE [4] was 0.17 mg/dL and the GLUCOSE [4] was 138.67 mg/dL. The “LACTATE DEHYDROGENASE” value [4] was 71 u/L, the LIPASE [4] was 10.67 u/L and the PHOSPHORUS [4] was 10.43 mg/dL. The POTASSIUM [4] was 6.81 MEQ/L, the SODIUM [4] was 148.63 MEQ/L and the “TOTAL BILIRUBIN” value [4] was 0.17 mg/dL. For the same molecule, the “TOTAL PROTEIN” value [4] was 5.73 G/DL and the “URIC ACID” value [4] was 1.27 mg/dL.
